According to US20260242759A1, “GQ/11 Protein Peptidomimetics” (Vrije Universiteit Brussel, priority 2022, published 2026):
Non-standard residues stand in square brackets, D forms with d. Residues, ends and D or L forms follow the SMILES beside them. Cha = N[C@@H](CC1CCCCC1)C(=O)O

Columns and labels:
[1] = molecular target: T1, human muscarinic 1 receptor (M1R) (Homo sapiens, UniProt P11229); assay: Radioligand binding assay (RLA) on M1R membrane extracts; settings: IC50 of agonist without mimetic divided by IC50 with mimetic; averaged value
T1 construct: The M1R constructs used in this assay consisted of the full-length human muscarinic 1 receptor; FLAG (N); expressed in transfected cells; membrane extracts
T1 sequence (P11229 1-460): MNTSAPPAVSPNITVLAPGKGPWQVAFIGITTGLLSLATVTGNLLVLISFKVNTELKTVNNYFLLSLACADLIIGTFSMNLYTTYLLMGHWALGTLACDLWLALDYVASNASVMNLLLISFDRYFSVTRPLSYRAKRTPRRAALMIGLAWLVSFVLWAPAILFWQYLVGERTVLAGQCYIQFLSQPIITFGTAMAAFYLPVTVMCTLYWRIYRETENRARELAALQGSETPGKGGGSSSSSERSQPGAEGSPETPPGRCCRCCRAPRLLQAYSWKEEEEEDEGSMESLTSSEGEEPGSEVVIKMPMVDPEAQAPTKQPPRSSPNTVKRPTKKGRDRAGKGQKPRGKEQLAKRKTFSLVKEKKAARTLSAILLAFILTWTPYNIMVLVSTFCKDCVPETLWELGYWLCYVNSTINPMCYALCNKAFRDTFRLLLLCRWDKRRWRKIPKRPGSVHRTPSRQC
Description: A radioligand displacement assay can quantify the pharmacological stabilization of the GPCR in the active conformation by comparing the affinities of an agonist for the basal versus the active GPCR conformer. In particular, stabilization of a GPCR in an active conformational state or specific binding to a GPCR in an active conformational state by a G protein peptidomimetic or a Gq/11 protein peptidomimetic as disclosed herein can be determined based on the shift in IC50 value of a ligand, in particular an agonist more particularly an orthosteric agonist, which binds to the GPCR when tested in the presence and the absence of the G protein peptidomimetic or the Gq/11 protein peptidomimetic. During the assay, the binding affinity of an orthosteric agonist for the receptor in presence and absence of the (allosteric) peptidomimetic is determined. Therefore, the GPCR, e.g. embedded in membrane extracts, is incubated with a radioligand and different concentrations of the agonist. By increasing the agonist concentration, radioligand will be displaced by the agonist. A leftward shift of the curve in the presence of the peptidomimetic is indicative of a peptidomimetic capable of stabilizing a GPCR in an active conformational state. A “shift” in IC50 value or IC50 shift is defined herein as the IC50 ratio of a ligand, in particular an agonist, more particularly an orthosteric agonist, which binds to the GPCR in the absence of a G protein peptidomimetic or a Gq/11 protein peptidomimetic relative to the presence of the G protein peptidomimetic or the Gq/11 protein peptidomimetic, or the IC50 value of a ligand, in particular an agonist, for binding to the GPCR in the absence of a G protein peptidomimetic or a Gq/11 protein peptidomimetic divided by the IC50 value of the ligand in the presence of the G protein peptidomimetic or the Gq/11 protein peptidomimetic in the same preparation, wherein said IC50 values are determined in a radioligand binding assay or radioligand displacement assay (RLA) as known to the skilled person. For example, a human muscarinic acetylcholine 1 receptor (M1R) radioligand binding assay using ^3H—N-methyl scopolamine (^3H-NMS) as the radioligand and increasing concentrations of acetylcholine chloride (agonist) as cold competitor may be used.
The membrane extracts were prepared from cells that overexpressed muscarinic acetylcholine 1 receptor (M1R), by resuspending the cell pellet in a buffer (1 ml buffer/2×1E7 cells) containing 20 mM Hepes (pH 7.4), 100 mM NaCl, Leupeptin and phenylmethylsulfonyl fluoride (PMSF). Afterwards the cells were vortexed and homogenized in ice using a small volume ULTRA-TURRAX® (6×10 sec). The cells were then centrifuged for 15 min at 16000 rcf, in a pre-cooled centrifuge (4° C.) and resuspended in the previous buffer containing 10% sucrose. Finally, the membranes were again homogenized in ice with the small volume ULTRA-TURRAX® (3×10 sec). The protein concentration in the membrane extracts was determined using a Pierce™ bicinchoninic acidv (BCA) Protein Assay Kit and the protein concentration was extrapolated from the Bovine Serum Albumine standard curve.
The M1R constructs used in this assay consisted of the full-length human muscarinic 1 receptor with a FLAG tag at the N-terminus. A buffer containing 20 mM Hepes pH 7.4, 100 mM NaCl, and 0.1% BSA was used for the ligands, membrane extracts and peptides (+1% dimethylsulfoxide (DMSO)). The competition assay was performed with [3H]—N-methyl scopolamine ([3H]-NMS) as radiolabeled antagonist, at a final concentration of 0.6 nM. A ten-fold dilution series of the agonist, acetylcholine chloride, was prepared to obtain a dose response curve. After incubation, the samples were harvested into filter plates (GF/C) and washed with ice cold washing buffer (20 mM Hepes pH 7.4) using the 96-well harvester. […]

ghrelin receptor = molecular target: T2, ghrelin receptor (Homo sapiens, UniProt Q92847); assay: IP-One Gq assay; format: cell-based; settings: peptidomimetic at 10 μM, varying MK0677; FIG. 8
T2 construct: expressed in transfected cells; host or cells: HEK293 cells overexpressing the ghrelin receptor
T2 sequence (Q92847 whole entry): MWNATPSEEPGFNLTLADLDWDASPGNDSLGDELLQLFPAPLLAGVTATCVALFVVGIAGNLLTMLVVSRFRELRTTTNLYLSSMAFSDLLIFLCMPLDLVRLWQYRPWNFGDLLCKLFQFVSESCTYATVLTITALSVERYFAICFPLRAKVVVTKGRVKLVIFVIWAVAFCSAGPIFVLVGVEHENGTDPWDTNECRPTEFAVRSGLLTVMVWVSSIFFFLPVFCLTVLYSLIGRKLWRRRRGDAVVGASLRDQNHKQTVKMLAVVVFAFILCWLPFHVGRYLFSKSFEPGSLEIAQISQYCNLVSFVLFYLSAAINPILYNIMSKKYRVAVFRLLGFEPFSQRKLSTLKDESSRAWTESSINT
Description: IP-One assays were conducted by using a homogeneous time-resolved fluorescence resonance energy transfer (TRFRET) assay (cisbio, IP-One Gq kit). The assays were performed on 384-well plates, containing 5000 cells/well. The HEK293 cells, in stimulation buffer (1×), were incubated with 5 or 10 μM of peptides (in stimulation buffer) during 1 h at 37° C. […] Finally, the d2-labeled IP1 and anti-IP1-cryptate, diluted in lysis buffer, were added to each well and incubated at room temperature. After 2 h of incubation in the dark, the plates were analyzed using the PHERAstar microplate reader.
The IP-One Gq assay detects the accumulation of inositol monophosphate (IP1), a metabolite produced following phospholipase C activation.
The assays were performed on 384-well plates containing HEK293 cells that overexpress the ghrelin receptor. First, the Gq/11 peptidomimetics were incubated during 1 h to allow penetration in the cells. […] After 45 min of incubation, the cells were lysed and d2-labeled IP1 (acceptor, 665 nm) was exogenously added to compete with the native unlabeled IP1 for binding with the anti-IP1-Cryptate (donor, 620 nm). Fluorescence was measured and the fluorescence ratio (665 nm/620 nm) was determined.

`CC[C@H](C)[C@H](NC(=O)[C@@H](NC(=O)[C@H](CC(=O)O)NC(=O)[C@H](CCCCN)NC(=O)[C@@H](NC(=O)[C@H](C)NC(=O)[C@H](C)NC(=O)[C@H](Cc1ccccc1)NC(=O)[C@H](CCCCN)NC(=O)[C@H](CCCCN)NC(=O)[C@H](CCCCN)NC(C)=O)C(C)C)[C@@H](C)O)C(=O)N[C@@H](CC(C)C)C(=O)N[C@@H](CCC(N)=O)C(=O)N[C@@H](CC(C)C)C(=O)N[C@@H](CC(N)=O)C(=O)N[C@@H](CC(C)C)C(=O)N[C@@H](CCCCN)C(=O)N[C@@H](CCC(=O)O)C(=O)N[C@@H](Cc1ccc(O)cc1)C(=O)N[C@@H](CC(N)=O)C(=O)N[C@@H](CC1CCCCC1)C(=O)N[C@H](C(=O)O)C(C)C` [SBL-GQ-04] (Ac-KKKFAAVKDTILQLNLKEYN[Cha]V-OH) was tested, and the Shift [1] was 4 and the “receptor activation / fluorescence ratio (665 nm/620 nm) vs absence of peptidomimetic” value (ghrelin receptor) was “Almost no difference in receptor activation”.
